Reference: US11319347B2, “Peptide compound and method for producing same, composition for screening use, and method for selecting peptide compound” (FUJIFILM Corporation, priority 2017, dated 2022)
Starred links: 1 amine or outer side, 2 acyl side, 3 side chain; linkers in the order of their positions; H or OH if unused. Positions of bridges follow the written chain, without caps; N, C: chain ends. Non-standard residues stand in square brackets, D forms with d. Residues, ends and D or L forms follow the SMILES beside them. Phe(3-(4R-CO-2-thiazolinyl)) = O=C([C@H](Cc1cccc(C2=N[C@H](C(=O)[*:3])CS2)c1)N[*:1])[*:2]; dCha = N[C@H](CC1CCCCC1)C(=O)O

How the values were obtained:
[1] = Membrane permeability of synthesized cyclic peptides by PAMPA (Measurement Method A: 1 μmol/L; Method B: 10 μmol/L); format: in vitro ADME; settings: Measurement method A, 25° C., 4 hours
Protocol: Evaluation of membrane permeability of synthesized cyclic peptide by PAMPA method In order to compare and examine the membrane permeability of the synthesized cyclic peptide, parallel artificial membrane permeability assay (PAMPA) was carried out.
An artificial phospholipid membrane was produced by adding 5 μL of a phospholipid organic solvent solution consisting of L-α-phosphatidylcholine (Avanti Polar Lipids, Inc., Cat. 840051P, 1.67%), 1,2-dioleoyl-sn-glycero-3-phospho-L-serine (Avanti Polar Lipids, Inc., Cat. 840035P, 0.33%), and n-dodecane special grade (Wako Pure Chemical Industries, Ltd., 047-21612)/1-octanol reagent special grade (Kanto Chemical Co., Inc., Cat. 31013-08)=10:1 to Filter Plate (Merck Millipore Corporation, Cat. MAIPN4550).
475 μL of 50 mmol/L potassium phosphate buffer (KPB, pH 7.4 or pH 6.5) was added to 25 μL of a DMSO solution containing the compound at a concentration of 20 μmol/L, so that the compound was diluted to a final concentration of 1 μmol/L. 300 μL of the compound solution was added to the lower side (donor side) of PAMPA 96-well plate (Filter Plate (Merck Millipore Corporation, Cat. MAIPN4550)) with an artificial phospholipid membrane being interposed therebetween. 200 μL of 5% DMSO KPB (pH 7.4) was added to the upper side (acceptor side) with the artificial phospholipid membrane being interposed therebetween. A permeation test through an artificial phospholipid membrane was carried out at 25° C. for 4 hours. The compound concentration in the solution in the donor plate and the acceptor plate was measured by LC/MS/MS, and the membrane permeation rate (Pe) of the compound was calculated from the following formula, assuming that C0 is an initial compound concentration in donor solution, t is a test time, A is a membrane filter area=0.3 cm^2, VD is a donor solution amount=300 μL, VA is an acceptor solution amount=200 μL, and CD(t) is a compound concentration in donor solution at time t, CA(t) is a compound concentration in acceptor solution at time t, and Cequilibrium=[CD(t)*VD+CA(t)*VA]/(VD+VA).
475 μL of 50 mmol/L potassium phosphate buffer (KPB, pH 7.4 or pH 6.5) was added to 25 μL of a DMSO solution containing the compound at a concentration of […], so that the compound was diluted to a final concentration of 10 μmol/L. The compound solution was added 300 μL each to the lower side (donor side) of an artificial phospholipid membrane of PAMPA 96-well plate (Filter Plate (Merck Millipore Corporation, Cat. MAIPN4550)). 200 μL of 5% DMSO KPB (pH 7.4) was added to the upper side (acceptor side) with the artificial phospholipid membrane being interposed therebetween. A permeation test through an artificial phospholipid membrane was carried out at 25° C. for 4 hours. The compound concentration in the solution in the donor plate and the acceptor plate was measured by LC/MS/MS, and the membrane permeation rate (Pe) of the compound was calculated from the following formula, assuming that Co is an initial compound concentration in donor solution, t is a test time, A is a membrane filter area=0.3 cm^2, VD is a donor solution amount=300 μL, VA is an acceptor solution amount=200 μL, and CD(t) is a compound concentration in donor solution at time t, CA(t) is a compound concentration in acceptor solution at time t, and Cequilibrium=[CD(t)*VD+CA(t)*VA]/(VD+VA).
The membrane permeability (Pe(10^−6 cm/s)) obtained by this method is described in the following table.
(§1) Evaluation standards are as follows.

[2] = Metabolic stability of cyclic peptides in human liver microsomes (HLM residual rate); format: in vitro ADME; settings: 1 μmol/L, human liver microsomes 0.5 mg protein/mL, 37° C., 20 minutes, NADPH and UDPGA
Protocol: Test of metabolic stability of cyclic peptide in human liver microsome
An experiment using human liver microsomes (HLMs) was carried out in order to compare and examine the metabolic stability of the synthesized cyclic peptides.
The compound with a final concentration of 1 μmol/L was incubated in human liver microsomes (BD Cat #452117) prepared to a final concentration of 0.5 mg protein/mL using 100 mmol/L phosphate buffer (pH 7.4) at 37° C. for 20 minutes in the presence of reduced nicotinamide adenine dinucleotide phosphate (NADPH) and uridine 5′-diphosphate-α-D-glucuronic acid (UDPGA). Deproteinization treatment with acetonitrile was carried out, the amount of unaltered substance remaining was quantified using LC/MS/MS, and the residual rate (%) in 20 minutes was calculated. The HLM residual rate (%) obtained by this method is described in the following table.
as §1

Row | Compound | Pe(10^−6 cm/sec) [1] | HLM residual rate [2]
1 | N=C(N)NCCC[C@@H]1NC(=O)[C@H](Cc2c[nH]c3ccccc23)NC(=O)[C@@H](CC2CCCCC2)NC(=O)[C@@H]2CCCN2C(=O)[C@@H]2CSC(=N2)c2cc3c(cccc3s2)C[C@@H](C(N)=O)NC1=O [2-1] | +++ (0.5<Pe (10^−6 cm/s)) | +++ (60%<HLM residual rate (%))
2 | N=C(N)NCCC[C@@H]1NC(=O)[C@H](Cc2c[nH]c3ccccc23)NC(=O)[C@@H](CC2CCCCC2)NC(=O)[C@@H]2CCCN2C(=O)[C@@H]2CSC(=N2)c2ccncc2C[C@@H](C(N)=O)NC1=O [2-5] | ++ (0.2<Pe (10^−6 cm/s)≤0.5) | ++ (40%<HLM residual rate (%)≤60%)
3 | N=C(N)NCCC[C@@H]1NC(=O)[C@H](Cc2c[nH]c3ccccc23)NC(=O)[C@@H](CC2CCCCC2)NC(=O)[C@@H]2CCCN2C(=O)[C@@H]2CSC(=N2)c2cccnc2C[C@@H](C(N)=O)NC1=O [2-6] | ++ (0.2<Pe (10^−6 cm/s)≤0.5) | +++ (60%<HLM residual rate (%))
4 | N=C(N)NCCC[C@@H]1NC(=O)[C@H](Cc2c[nH]c3ccccc23)NC(=O)[C@@H](CC2CCCCC2)NC(=O)[C@@H]2CCCN2C(=O)[C@@H]2CSC(=N2)c2cncc(c2)C[C@@H](C(N)=O)NC1=O [2-7] | +++ (0.5<Pe (10^−6 cm/s)) | +++ (60%<HLM residual rate (%))
5 | N=C(N)NCCC[C@@H]1NC(=O)[C@H](Cc2c[nH]c3ccccc23)NC(=O)[C@@H](CC2CCCCC2)NC(=O)[C@@H]2CCCN2C(=O)[C@@H]2CSC(=N2)c2ccnc(c2)C[C@@H](C(N)=O)NC1=O [2-10] | +++ (0.5<Pe (10^−6 cm/s)) | +++ (60%<HLM residual rate (%))
6 | N=C(N)NCCC[C@@H]1NC(=O)[C@H](Cc2c[nH]c3ccccc23)NC(=O)[C@@H](CC2CCCCC2)NC(=O)[C@@H]2CCCN2C(=O)[C@@H]2CSC(=N2)c2ccc(nc2)C[C@@H](C(N)=O)NC1=O [2-11] | +++ (0.5<Pe (10^−6 cm/s)) | +++ (60%<HLM residual rate (%))
7 | N=C(N)NCCC[C@@H]1NC(=O)[C@H](Cc2c[nH]c3ccccc23)NC(=O)[C@@H](CC2CCCCC2)NC(=O)[C@@H]2CCCN2C(=O)[C@@H]2CSC(=N2)c2ccc(nn2)C[C@@H](C(N)=O)NC1=O [2-15] | – | ++ (40%<HLM residual rate (%)≤60%)
8 | N=C(N)NCCC[C@@H]1NC(=O)[C@H](Cc2c[nH]c3ccccc23)NC(=O)[C@@H](CC2CCCCC2)NC(=O)[C@@H]2CCCN2C(=O)[C@@H]2CSC(=N2)c2cc(cs2)C[C@@H](C(N)=O)NC1=O [2-16] | +++ (0.5<Pe (10^−6 cm/s)) | ++ (40%<HLM residual rate (%)≤60%)
9 | N=C(N)NCCC[C@@H]1NC(=O)[C@H](Cc2c[nH]c3ccccc23)NC(=O)[C@@H](CC2CCCCC2)NC(=O)[C@@H]2CCCN2C(=O)[C@@H]2CSC(=N2)c2nc(cs2)C[C@@H](C(N)=O)NC1=O [2-18] | – | ++ (40%<HLM residual rate (%)≤60%)
10 | N=C(N)NCCC[C@@H]1NC(=O)[C@H](Cc2c[nH]c3ccccc23)NC(=O)[C@@H](CC2CCCCC2)NC(=O)[C@@H]2CCCN2C(=O)[C@@H]2CSC(=N2)c2csc(n2)C[C@@H](C(N)=O)NC1=O [2-19] | +++ (0.5<Pe (10^−6 cm/s)) | +++ (60%<HLM residual rate (%))
11 | N=C(N)NCCC[C@@H]1NC(=O)[C@H](Cc2c[nH]c3ccccc23)NC(=O)[C@@H](CC2CCCCC2)NC(=O)[C@@H]2CCCN2C(=O)[C@@H]2CSC(=N2)c2n[nH]cc2C[C@@H](C(N)=O)NC1=O [2-20] | – | ++ (40%<HLM residual rate (%)≤60%)
12 | CC1(C)SC2=N[C@@H]1C(=O)N1CCC[C@H]1C(=O)N[C@H](CC1CCCCC1)C(=O)N[C@@H](Cc1c[nH]c3ccccc13)C(=O)N[C@@H](CCCNC(=N)N)C(=O)N[C@H](C(N)=O)Cc1cccc2n1 [2-21] | +++ (0.5<Pe (10^−6 cm/s)) | +++ (60%<HLM residual rate (%))
13 | COc1cc2cnc1C1=N[C@@H](CS1)C(=O)N1CCC[C@H]1C(=O)N[C@H](CC1CCCCC1)C(=O)N[C@@H](Cc1c[nH]c3ccccc13)C(=O)N[C@@H](CCCNC(=N)N)C(=O)N[C@H](C(N)=O)C2 [2-22] | ++ (0.2<Pe (10^−6 cm/s)≤0.5) | +++ (60%<HLM residual rate (%))
14 | N=C(N)NCCC[C@@H]1NC(=O)[C@H](Cc2c[nH]c3ccccc23)NC(=O)[C@@H](CC2CCCCC2)NC(=O)[C@@H]2CCCN2C(=O)[C@@H]2CSC(=N2)c2cc3cc(ccc3[nH]2)C[C@@H](C(N)=O)NC1=O [3-2] | +++ (0.5<Pe (10^−6 cm/s)) | +++ (60%<HLM residual rate (%))
15 | N=C(N)NCCC[C@@H]1NC(=O)[C@H](Cc2c[nH]c3ccccc23)NC(=O)[C@@H](CC2CCCCC2)NC(=O)[C@@H]2CCCN2C(=O)[C@@H]2CSC(=N2)c2ncccc2C[C@@H](C(N)=O)NC1=O [3-3] | – | +++ (60%<HLM residual rate (%))
16 | N=C(N)NCCC[C@@H]1NC(=O)[C@H](Cc2c[nH]c3ccccc23)NC(=O)[C@@H](CC2CCCCC2)NC(=O)[C@@H]2CCCN2C(=O)[C@@H]2CSC(=N2)c2cccc(c2)C[C@@H](C(N)=O)NC1=O [3-4] (P[dCha]WR[Phe(3-(4R-CO-2-thiazolinyl))]-NH2; lactam N-5) | +++ (0.5<Pe (10^−6 cm/s)) | +++ (60%<HLM residual rate (%))
17 | N=C(N)NCCCC1NC(=O)[C@H](Cc2c[nH]c3ccccc23)NC(=O)[C@@H](CC2CCCCC2)NC(=O)[C@@H]2CCCN2C(=O)c2csc(n2)-c2cccc(c2)C[C@@H](C(N)=O)NC1=O (stereo partly shown) [6-1] | +++ (0.5<Pe (10^−6 cm/s)) | +++ (60%<HLM residual rate (%))
18 | C[C@@H]1NC(=O)CSC[C@@H](C(N)=O)NC(=O)[C@H](CCCNC(=N)N)NC(=O)[C@H](Cc2c[nH]c3ccccc23)NC(=O)[C@@H](CC2CCCCC2)NC(=O)[C@@H]2CCCN2C1=O [7-1] ({CH2CO}-AP[dCha]WRC-NH2; thioether N-6) | + (0.01<Pe (10^−6 cm/s)≤0.2) | + (HLM residual rate (%)≤40%)
19 | CC(=O)N[C@H]1CSSC[C@@H](C(N)=O)NC(=O)[C@H](CCCNC(=N)N)NC(=O)[C@H](Cc2c[nH]c3ccccc23)NC(=O)[C@@H](CC2CCCCC2)NC(=O)[C@@H]2CCCN2C1=O [9-1] (Ac-CP[dCha]WRC-NH2; disulfide 1-6) | + (0.01<Pe (10^−6 cm/s)≤0.2) | + (HLM residual rate (%)≤40%)
